Where only a bound is given, the exact number is not on record here.

The results in this text go back to patent US4927809A, “Oligopeptidyl nitrile derivatives, agents containing them and their use” (Behringwerke Aktiengesellschaft, priority 1986, dated 1990).

For series [1], the target named is T1, alpha human thrombin (Homo sapiens, UniProt P00734).
T1 construct: alpha human thrombin
As to the kind of experiment: Determination of the thrombin time (concentration doubling the thrombin time) in standard human plasma. It counts as biochemical. Conditions: pH 7.6, 37° C., alpha human thrombin 3.0 IU/ml. The procedure:
The activity of the substances prepared as in Examples 1, 2 or 3 was ascertained by determination of the thrombin time. This entailed the concentration (in μmol/l) which doubled the thrombin time being ascertained.
50 μl of inhibitor solution of various concentrations, 50 μl of standard human plasma and 100 μl of diethylbarbituric acid/sodium acetate buffer, pH 7.6, were incubated at 37° C. for 45 seconds and 100 μl of alpha human thrombin (3.0 IU/ml) were added. The tests were carried out on a Schnitger & Gross apparatus for determination of the thrombin time.

Series [2] deals with T1, alpha human thrombin. As to the kind of experiment: Inhibition constant (Ki) against alpha human thrombin. It counts as biochemical.
Another series deals with mice. The following applies: mouse, in vivo, iv. The procedure: The toxicity of H-D-Phe-Pro-Arg-CN × 2HCOOH […] in an animal model. The test substance was administered i.v. to mice. Clinically detectable pathological findings were found at and above a dose of 50 mg/kg. The dose for a therapeutic effect ought to be about 1-4 mg/kg.

As for `CC(C)(C)OC(=O)N[C@H](Cc1ccccc1)C(=O)N1CCC[C@H]1C(=O)NC(C#N)CCCNC(=N)N` (stereo partly drawn) [Example 1, N(alpha)-Boc-D-Phenylalanyl-L-prolyl-L-(1-amino-4-guanidino)valeronitrile], the “Doubling of the thrombin time at concentration (final conc.)” value on alpha human thrombin [1] was 3.66 µmol/L.

Take `N#CC(CCCNC(=N)N)NC(=O)[C@@H]1CCCN1C(=O)[C@@H](Cc1ccccc1)NC(=O)OCC1c2ccccc2-c2ccccc21` (stereo partly drawn) [Example 2, N(alpha)-Fmoc-D-Phenylalanyl-L-prolyl-L-(1-amino-4-guanidino)valeronitrile]: at alpha human thrombin [1], the “Doubling of the thrombin time at concentration (final conc.)” value stood at 3.66 µmol/L. Still for that read-out and setting: with `N#CC(CCCNC(=N)N)NC(=O)[C@@H]1CCCN1C(=O)[C@H](N)Cc1ccccc1.O=C(O)C(F)(F)F.O=C(O)C(F)(F)F` (stereo partly drawn) [Example 3, H-D-Phenylalanyl-L-prolyl-L-(1-amino-4-guanidino)valeronitrile ditrifluoroacetate] the figure was 1.1 µmol/L. `N#C[C@H](CCCNC(=N)N)NC(=O)[C@@H]1CCCN1C(=O)[C@H](N)Cc1ccccc1.O=CO.O=CO` [H-D-Phe-Pro-Arg-CN × 2HCOOH]: the Ki at alpha human thrombin [2] amounted to 600 nM. In addition, the “Dose at and above which clinically detectable pathological findings were found” value in the series with mice was at least 50 mg/kg.
